# According to patent US11504383B2, “Crystalline forms of a Ryanodine receptor modulator and uses thereof” (ARMGO Pharma, Inc., priority 2021, dated 2022):
# “Also recorded” adds a separate entry of the source.
# Experiments:
# [1] = Stability of Form 2 in an airtight glass bottle for up to 24 months under various storage conditions; format: physicochemical; parameters: key to Appearance: A1: White or almost white powder; key to Identification: I1: Spectrum of test sample identical to spectrum of reference sample; I3: Spectrum of test sample identical to spectrum of reference sample stored at −18° C
# Experimental: Stability of 4-[(7-methoxy-2,3-dihydro-1,4-benzothiazepin-4(5H)yl)methyl]benzoic acid hemifumarate Form 2 was evaluated for up to 24 months under various conditions.
# [2] = Dynamic vapor sorption (hygroscopicity); format: physicochemical; conditions: DVS, 25° C., 0-90% relative humidity
# Experimental: Dynamic vapor sorption (DVS) analysis was performed by measuring mass variation of the crystalline form of 4-[(7-methoxy-2,3-dihydro-1,4-benzothiazepin-4(5H)yl)methyl]benzoic acid hemifumarate as a function of relative humidity using a DVS intrinsic instrument. A 5 mg to 10 mg of a sample of a crystalline form of 4-[(7-methoxy-2,3-dihydro-1,4-benzothiazepin-4(5H)yl)methyl]benzoic acid, hemifumarate was placed into a sample pan of a DVS intrinsic instrument at 25° C. under controlled humidity. The mass variation was recorded as a function of relative humidity.
# Measurement of DVS comprised: (a) equilibrating a sample of the crystalline form at 25° C. and 50% relative humidity in a temperature-controlled and humidity controlled chamber until mass variation is less than 0.002% per minute for 6 hours; (b) increasing the relative humidity from 50% to 90% at a rate of 10% per hour; (c) equilibrating the sample at 90% relative humidity until mass variation of less than 0.002% per minute for 6 hours is observed; (d) decreasing the relative humidity from 90% to 0% at a rate of 10% per hour; (e) equilibrating the sample at 0% relative humidity until mass variation of less than 0.002% per minute for 6 hours is observed; and (f) increasing the relative humidity from 0% to 50% at a rate of 10% per hour.
smiles,measurement,setting,value
"COc1ccc2c(c1)CN(Cc1ccc(C(=O)O)cc1)CCS2.O=C(O)/C=C/C(=O)O [Form 2, 4-[(7-methoxy-2,3-dihydro-1,4-benzothiazepin-4(5H)yl)methyl]benzoic acid, hemifumarate]",Appearance,"[1]; 25° C./60% RH, 1 Y",A1
same,Assay of Drug substance (LC),"[1]; 25° C./60% RH, 1 Y",99.8%
same,Identification,"[1]; 25° C./60% RH, 1 Y",I3
same,Related substances content (LC) Sum of impurities,"[1]; 25° C./60% RH, 1 Y",≤0.05%
same,Water content,"[1]; 25° C./60% RH, 1 Y",<0.1%
same,Appearance,"[1]; 25° C./60% RH, 2 Y",A1
same,Assay by potentiometry,"[1]; 25° C./60% RH, 2 Y",99.6%
same,Assay of Drug substance (LC),"[1]; 25° C./60% RH, 2 Y",99.5%
same,Identification,"[1]; 25° C./60% RH, 2 Y",I3
same,Related substances content (LC) Sum of impurities,"[1]; 25° C./60% RH, 2 Y",≤0.05%
same,Water content,"[1]; 25° C./60% RH, 2 Y",<0.1%
same,Appearance,"[1]; 25° C./60% RH, 3 M",A1
same,Assay by potentiometry,"[1]; 25° C./60% RH, 3 M",100.0%
same,Assay of Drug substance (LC),"[1]; 25° C./60% RH, 3 M",99.6%
same,Identification,"[1]; 25° C./60% RH, 3 M",I3
same,Related substances content (LC) Sum of impurities,"[1]; 25° C./60% RH, 3 M",≤0.05%
same,Water content,"[1]; 25° C./60% RH, 3 M",0.1%
same,Appearance,"[1]; 25° C./60% RH, 6 M",A1
same,Assay by potentiometry,"[1]; 25° C./60% RH, 6 M",102.1%
same,Assay of Drug substance (LC),"[1]; 25° C./60% RH, 6 M",99.7%
same,Identification,"[1]; 25° C./60% RH, 6 M",I3
same,Related substances content (LC) Sum of impurities,"[1]; 25° C./60% RH, 6 M",≤0.05%
same,Water content,"[1]; 25° C./60% RH, 6 M",0.1%
same,Appearance,"[1]; 25° C./60% RH, 6 W",A1
same,Assay by potentiometry,"[1]; 25° C./60% RH, 6 W",99.7%
same,Assay of Drug substance (LC),"[1]; 25° C./60% RH, 6 W",102.5%
same,Identification,"[1]; 25° C./60% RH, 6 W",I3
same,Related substances content (LC) Sum of impurities,"[1]; 25° C./60% RH, 6 W",≤0.05%
same,Water content,"[1]; 25° C./60% RH, 6 W",<0.1%
same,Appearance,"[1]; 25° C./60% RH, 9 M",A1
same,Assay by potentiometry,"[1]; 25° C./60% RH, 9 M",99.1%
same,Assay of Drug substance (LC),"[1]; 25° C./60% RH, 9 M",100.6%
same,Identification,"[1]; 25° C./60% RH, 9 M",I3
same,Related substances content (LC) Sum of impurities,"[1]; 25° C./60% RH, 9 M",≤0.05%
same,Water content,"[1]; 25° C./60% RH, 9 M",<0.1%
same,Appearance,"[1]; 25° C./60% RH, 18 M",A1
same,Assay by potentiometry,"[1]; 25° C./60% RH, 18 M",99.8%
same,Assay of Drug substance (LC),"[1]; 25° C./60% RH, 18 M",100.9%
same,Identification,"[1]; 25° C./60% RH, 18 M",I3
same,Related substances content (LC) Sum of impurities,"[1]; 25° C./60% RH, 18 M",≤0.05%
same,Water content,"[1]; 25° C./60% RH, 18 M",0.1%
same,Appearance,"[1]; 25° C./60% RH, T0",A1
same,Assay by potentiometry,"[1]; 25° C./60% RH, T0",99.9%
same,Assay of Drug substance (LC),"[1]; 25° C./60% RH, T0",99.7%
same,Identification,"[1]; 25° C./60% RH, T0",I1
same,Related substances content (LC) Sum of impurities,"[1]; 25° C./60% RH, T0",≤0.05%
same,Water content,"[1]; 25° C./60% RH, T0",0.1%
same,Appearance,"[1]; 30° C./65% RH, 1 Y",A1
same,Assay of Drug substance (LC),"[1]; 30° C./65% RH, 1 Y",99.5%
same,Identification,"[1]; 30° C./65% RH, 1 Y",I3
same,Related substances content (LC) Sum of impurities,"[1]; 30° C./65% RH, 1 Y",≤0.05%
same,Water content,"[1]; 30° C./65% RH, 1 Y",<0.1%
same,Appearance,"[1]; 30° C./65% RH, 3 M",A1
same,Assay by potentiometry,"[1]; 30° C./65% RH, 3 M",99.8%
same,Assay of Drug substance (LC),"[1]; 30° C./65% RH, 3 M",99.7%
same,Identification,"[1]; 30° C./65% RH, 3 M",I3
same,Related substances content (LC) Sum of impurities,"[1]; 30° C./65% RH, 3 M",≤0.05%
same,Water content,"[1]; 30° C./65% RH, 3 M",0.1%
same,Appearance,"[1]; 30° C./65% RH, 6 M",A1
same,Assay by potentiometry,"[1]; 30° C./65% RH, 6 M",100.4%
same,Assay of Drug substance (LC),"[1]; 30° C./65% RH, 6 M",100.2%
same,Identification,"[1]; 30° C./65% RH, 6 M",I3
same,Related substances content (LC) Sum of impurities,"[1]; 30° C./65% RH, 6 M",≤0.05%
same,Water content,"[1]; 30° C./65% RH, 6 M",0.1%
same,Appearance,"[1]; 30° C./65% RH, 6 W",A1
same,Assay by potentiometry,"[1]; 30° C./65% RH, 6 W",99.8%
same,Assay of Drug substance (LC),"[1]; 30° C./65% RH, 6 W",102.4%
same,Identification,"[1]; 30° C./65% RH, 6 W",I3
same,Related substances content (LC) Sum of impurities,"[1]; 30° C./65% RH, 6 W",≤0.05%
same,Water content,"[1]; 30° C./65% RH, 6 W",<0.1%
same,Appearance,"[1]; 30° C./65% RH, 9 M",A1
same,Assay by potentiometry,"[1]; 30° C./65% RH, 9 M",99.6%
same,Assay of Drug substance (LC),"[1]; 30° C./65% RH, 9 M",99.7%
same,Identification,"[1]; 30° C./65% RH, 9 M",I3
same,Related substances content (LC) Sum of impurities,"[1]; 30° C./65% RH, 9 M",≤0.05%
same,Water content,"[1]; 30° C./65% RH, 9 M",<0.1%
same,Appearance,"[1]; 30° C./65% RH, T0",A1
same,Assay by potentiometry,"[1]; 30° C./65% RH, T0",99.9%
same,Assay of Drug substance (LC),"[1]; 30° C./65% RH, T0",99.7%
same,Identification,"[1]; 30° C./65% RH, T0",I1
same,Related substances content (LC) Sum of impurities,"[1]; 30° C./65% RH, T0",≤0.05%
same,Water content,"[1]; 30° C./65% RH, T0",0.1%
same,Appearance,"[1]; 40° C./75% RH, 3 M",A1
same,Assay by potentiometry,"[1]; 40° C./75% RH, 3 M",99.8%
same,Assay of Drug substance (LC),"[1]; 40° C./75% RH, 3 M",99.5%
same,Identification,"[1]; 40° C./75% RH, 3 M",I3
same,Related substances content (LC) Sum of impurities,"[1]; 40° C./75% RH, 3 M",≤0.05%
same,Water content,"[1]; 40° C./75% RH, 3 M",0.1%
same,Appearance,"[1]; 40° C./75% RH, 6 M",A1
same,Assay by potentiometry,"[1]; 40° C./75% RH, 6 M",100.5%
same,Assay of Drug substance (LC),"[1]; 40° C./75% RH, 6 M",99.2%
same,Identification,"[1]; 40° C./75% RH, 6 M",I3
same,Related substances content (LC) Sum of impurities,"[1]; 40° C./75% RH, 6 M",≤0.05%
same,Water content,"[1]; 40° C./75% RH, 6 M",0.1%
same,Appearance,"[1]; 40° C./75% RH, 6 W",A1
same,Assay by potentiometry,"[1]; 40° C./75% RH, 6 W",99.8%
same,Assay of Drug substance (LC),"[1]; 40° C./75% RH, 6 W",102.2%
same,Identification,"[1]; 40° C./75% RH, 6 W",I3
same,Related substances content (LC) Sum of impurities,"[1]; 40° C./75% RH, 6 W",≤0.05%
same,Water content,"[1]; 40° C./75% RH, 6 W",0.1%
same,Appearance,"[1]; 40° C./75% RH, T0",A1
same,Assay by potentiometry,"[1]; 40° C./75% RH, T0",99.9%
same,Assay of Drug substance (LC),"[1]; 40° C./75% RH, T0",99.7%
same,Identification,"[1]; 40° C./75% RH, T0",I1
same,Related substances content (LC) Sum of impurities,"[1]; 40° C./75% RH, T0",≤0.05%
same,Water content,"[1]; 40° C./75% RH, T0",0.1%
same,Appearance,"[1]; −18° C., 1 Y",A1
same,Water content,"[1]; −18° C., 1 Y",<0.1%
same,Appearance,"[1]; −18° C., 2 Y",A1
same,Water content,"[1]; −18° C., 2 Y",<0.1%
same,Appearance,"[1]; −18° C., 3 M",A1
same,Water content,"[1]; −18° C., 3 M",0.1%
same,Appearance,"[1]; −18° C., 6 M",A1
same,Water content,"[1]; −18° C., 6 M",0.1%
same,Appearance,"[1]; −18° C., 6 W",A1
same,Assay by potentiometry,"[1]; −18° C., 6 W",99.9%
same,Identification,"[1]; −18° C., 6 W",I3
same,Water content,"[1]; −18° C., 6 W",0.1%
same,Appearance,"[1]; −18° C., 9 M",A1
same,Assay by potentiometry,"[1]; −18° C., 9 M",99.7%
same,Water content,"[1]; −18° C., 9 M",<0.1%
same,Appearance,"[1]; −18° C., 18 M",A1
same,Water content,"[1]; −18° C., 18 M",0.1%
same,Appearance,"[1]; −18° C., T0",A1
same,Assay by potentiometry,"[1]; −18° C., T0",99.9%
same,Assay of Drug substance (LC),"[1]; −18° C., T0",99.7%
same,Identification,"[1]; −18° C., T0",I1
same,Related substances content (LC) Sum of impurities,"[1]; −18° C., T0",≤0.05%
same,Water content,"[1]; −18° C., T0",0.1%
same,Hygroscopicity,[2],non-hygroscopic; also recorded: not hygroscopic
